Measurements published in patent US12410185B2, “Compounds targeting mutant calreticulin” (MYELOPRO DIAGNOSTICS AND RESEARCH GmbH, priority 2018, dated 2025).

Legend:
[1] = test system: STAT5 phosphorylation; assay: Western blot time-course, Ba/F3-MPL CALR WT/del79; type: cell-based; settings: 8-hour time point
Procedure: (§1) 2 million Ba/F3-MPL CALR WT or mutant cells were treated with hematoxylin or the equivalent volume of DMSO in a total volume of 15 ml of RPMI media in T75 flasks (Thermal Fisher Scientific). Cells were collected and washed with PBS before being lysed in whole cell lysis buffer containing 20 mM HEPES, 20% glycerol, 50 mM KCl, 400 mM NaCl, 1 mM EDTA, 1 mM DTT, 5 mM Na orthovanadate, 0.5% NP40, 0.1% Tween 20, supplemented with cOmplete™, Mini, EDTA-free Protease Inhibitor Cocktail (Sigma) and PhosSTOP™ (Sigma). Samples were rotated at 4° C. for 20 min prior to centrifugation at […] for 20 min. The soluble fraction of the sample was collected. Protein concentration was quantified by the Bio-Rad Protein Assay (Bio-Rad) according to the manufacturer's instructions and measured by a SpectraMax Microplate Reader (Molecular Devices). Equal amounts of protein were loaded for 8% or 10% SDS-polyacrylamide gel electrophoresis prior to transfer to Amersham™ Protran® nitrocellulose membranes at 35V, 4° C. overnight. Membranes were then blocked by 5% bovine serum albumin fraction V (Sigma) or milk. Mutant calreticulin was detected by a polyclonal rabbit antibody against the mutant specific C-terminal peptide (Myelopro). […]

[2] = test system: PARP cleavage; assay: Western blot time-course, Ba/F3-MPL CALR WT/del79; type: cell-based; settings: 8-hour time point
Procedure: as §1

[3] = target: T1, wild-type calreticulin (Mus musculus, UniProt P14211); assay: Western blot analysis of Ba/F3-MPL cell lines; type: cell-based; settings: 20 uM, 24 hours
T1 construct: endogenous in cells; host or cells: Ba/F3-MPL CALR WT and CALR WT/del79 cell lines
T1 sequence (P14211 18-416): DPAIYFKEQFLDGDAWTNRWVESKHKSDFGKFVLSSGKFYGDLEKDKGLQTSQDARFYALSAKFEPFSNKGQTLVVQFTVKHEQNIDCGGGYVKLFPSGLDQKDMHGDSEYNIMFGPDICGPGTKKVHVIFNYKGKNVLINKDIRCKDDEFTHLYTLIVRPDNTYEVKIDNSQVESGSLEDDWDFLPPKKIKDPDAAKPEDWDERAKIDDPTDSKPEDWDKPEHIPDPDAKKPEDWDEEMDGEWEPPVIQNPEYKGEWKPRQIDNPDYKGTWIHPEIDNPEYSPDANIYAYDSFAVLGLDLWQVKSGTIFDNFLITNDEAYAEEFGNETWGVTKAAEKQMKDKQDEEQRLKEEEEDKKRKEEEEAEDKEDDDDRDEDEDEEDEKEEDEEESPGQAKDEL
Procedure: as §1

[4] = test system: UT-7-TPO mutant cell lines; assay: 72 h dose response test, CellTiter-Glo cell viability assay; type: cell-based; settings: UT-7-TPO cell lines, mutant vs wild-type
Source text: Among 140.000 structures, a list of compounds with the highest binding energy and specificity towards calreticulin was generated. Relying on compounds that were either commercially available or available from the DTP Databases of the National Cancer Institute (NCI), a docking compound library including 41 compounds was assembled, […] CALR cell lines (FIGS. 5 and 6). […] Two hits were identified as preferentially inhibiting mutant CALR cell line growth. […] Therefore, hematoxylin and derivatives thereof were used for further testing.

[5] = test system: Ba/F3-MPL cell lines carrying C-terminal truncated CALR; assay: cytotoxicity assay in cell lines with C-terminal truncated CALR; type: cell-based, mouse; settings: truncated CALR mutations vs disease frameshift
Procedure: In order to further confirm the selective cytotoxicity of hematoxylin in CALR mutant cells, two-color competition assays were performed in both Ba/F3 and UT-7-TPO cells to assess the long-term efficacy of the compound (FIG. 9). […] The differential killing effect of hematoxylin could also be reproduced in the UT-7-TPO cell line. […] This reading frame encounters a stop codon shortly after the mutation and causes a truncation at the CALR C-terminus (FIG. 12). […] Moreover, CALR KO Ba/F3-MPL cell lines were tested for hematoxylin sensitivity.

[6] = test system: mutant CALR protein; assay: binding assay (data not shown)

With `Oc1cc2c(cc1O)[C@@H]1c3ccc(O)c(O)c3OC[C@]1(O)C2` [hematoxylin, Hematoxylin] the STAT5 phosphorylation [1] was “decrease”, the “PARP cleavage (apoptotic marker)” value [2] was “upregulation” and the “wild-type calreticulin protein level” value ([3]; CALR WT cell line) was “not affected”. For the same compound, the “wild-type calreticulin protein level” value ([3]; CALR heterozygous mutant cell line) was “up-regulation”, the “hypersensitivity of mutant cell lines to the compound” value [4] was “hypersensitivity of mutant cell lines to the compound could be reproduced” and the “hypersensitivity towards compound treatment” value [5] was “did not show hypersensitivity”. For the same compound, the “binding to mutant CALR protein” value [6] was “bound”.
